Measurements as given in patent US7273878B2, “Difluoroalkene derivative, pest control agent containing the same, and intermediate therefor” (Kumiai Chemical Industry Co., Ltd., priority 2001, dated 2007).

Legend:
ddy mouse (Slc:ddy) = assay: Oral acute toxicity test; format: in vivo; parameters: key: 0/3 means none of 3 recipient animals died; 1/3 means one out of 3 recipient animals died; 2/3 means 2 out of 3 recipient animals died; 3/3 means all 3 recipient animals died; conditions: oral 30 mg/kg, mortality investigated for 7 days; for Test result Female (mortality, animals died out of 3): female ddy mouse; for Test result Male (mortality, animals died out of 3): male ddy mouse
Description: Oral acute toxicity test was conducted according to the method described in the guideline in “Guideline for the Preparation of Test Report on the Toxicity Studies”, published by the Ministry of Agriculture, Forestry and Fisheries of Japan. Experimental animals, 3 each of male and female of 7 weeks aged ddy mouse (Slc:ddy), were obtained from SLC Japan Inc. The compounds of the present invention and the reference substances were suspended in 0.5% sodium carboxymethyl cellulose or corn oil to give a 30 (mg/kg) equivalent amount for a dosage of 10 ml per 1 kg of body weight. The suspensions were inoculated using a sonde directly into the stomach of test animals which were fasted for 3 hours before inoculation. The test animals were fasted for additional 3 hours after inoculation, and the mortality of the inoculated animal was investigated for 7 days. In this table, 0/3 means none of 3 recipient animals died, 1/3 means one out of 3 recipient animals died, 2/3 means 2 out of 3 recipient animals died, 3/3 means all 3 recipient animals died.

Tetranychus urticae = assay: Prevention/extermination test against Tetranychus urticae (0.8 ppm); format: in vivo; conditions: 312 h, 0.8 ppm active ingredient, soybean seedlings inoculated with imago, 25° C., after 13 days, read-out: prevention/extermination titer
Description: The wettable powder prepared according to the above Preparation Example 2 was diluted with water to a concentration of 500 ppm as a concentration of active ingredient. Soybean seedlings which had previously been inoculated with the imago of Tetranychus urticae were soaked in the test solution, then air dried. The treated soybean seedlings were left at the constant temperature of 25° C. After 13 days from the treatment, the number of surviving mites was counted, and the prevention/extermination titer was calculated according to the formula 2 below.
The wettable powder prepared according to the above Preparation Example 2 was diluted with water to a concentration of 0.8 ppm as a concentration of active ingredient. The same experiment as in Test Example 2 was carried out, and the prevention/extermination titer was calculated according to the formula 2.
In this test, representative compounds having the acaricidal effect with more than 90 of prevention/extermination titer include compound No. 63, 93, 77, 81, 105, 169, 190, 196 and 208.

| SMILES | Test result Female (mortality, animals died out of 3) (ddy mouse (Slc:ddy)) | Test result Male (mortality, animals died out of 3) (ddy mouse (Slc:ddy)) | pest or weed control at 0.8 ppm (Tetranychus urticae) [%] |
| --- | --- | --- | --- |
| CC(CCOC(=O)c1sc(-c2ccccc2)nc1C)=C(F)F [Compound 63, 4,4-difluoro-3-methyl-3-butenyl 4-methyl-2-phenyl-thiazole-5-carboxylate] | 0/3 | 0/3 | > 90 |
| CCCCOc1ccc(C(=O)OCCC(C)=C(F)F)cn1 [Compound 77, 4,4-difluoro-3-methyl-3-butenyl 6-butoxynicotinate] | 0/3 | 0/3 | > 90 |
